Test results: paper PMC9395446, “First-in-human phase 1/1b study to evaluate sitravatinib in patients with advanced solid tumors” (Investigational New Drugs, 2022)

Assay: Safety in phase 1/1b study (DLTs, TRAEs, TEAEs; CTCAE v4.03)
Assay type: in vivo, human
Text: Safety assessments included evaluation of DLTs, AEs, physical examinations, vital sign measurements, electrocardiogram recordings and laboratory tests.
A DLT was defined as a grade ≥ 4 hematologic abnormality lasting ≥ 4 days; grade 3 thrombocytopenia with clinically significant bleeding; febrile neutropenia; clinically significant grade ≥ 3 non-hematologic AEs not related to underlying malignancy; intolerable grade 2 AEs; or toxicity resulting in an inability to deliver 80% of the dose during the first treatment cycle.
The safety population included all patients who received ≥ 1 dose of sitravatinib. […] The PK evaluable population included all patients with sufficient concentration-time data for PK parameter evaluation. The modified intent-to-treat (mITT) population included all phase 1b patients who received ≥ 1 dose of study drug.

COCCNCc1ccc(-c2cc3nccc(Oc4ccc(NC(=O)C5(C(=O)Nc6ccc(F)cc6)CC5)cc4F)c3s2)nc1 [sitravatinib, Sitravatinib]
Hypophosphatemia TEAE, grade ≥3 (150 mg phase 1b): 9 (9.1) n (%)
Hypothyroidism TEAE, any grade (150 mg phase 1b): 22 (22.2) n (%)
Hypothyroidism TEAE, grade ≥3 (150 mg phase 1b): 0 n (%)
Hypothyroidism TRAE, any grade (150 mg phase 1b): 16 (16.2) n (%)
Hypothyroidism TRAE, grade ≥3 (150 mg phase 1b): 0 n (%)
Infections and infestations TEAE, any grade (150 mg phase 1b): 40 (40.4) n (%)
Infections and infestations TEAE, grade ≥3 (150 mg phase 1b): 12 (12.1) n (%)
Injury, poisoning, procedural complications TEAE, any grade (150 mg phase 1b): 20 (20.2) n (%)
Injury, poisoning, procedural complications TEAE, grade ≥3 (150 mg phase 1b): 2 (2.0) n (%)
Investigations TEAE, any grade (150 mg phase 1b): 66 (66.7) n (%)
Investigations TEAE, grade ≥3 (150 mg phase 1b): 23 (23.2) n (%)
Lipase increased TEAE, any grade (150 mg phase 1b): 15 (15.2) n (%)
Lipase increased TEAE, grade ≥3 (150 mg phase 1b): 10 (10.1) n (%)
Metabolism and nutrition disorders TEAE, any grade (150 mg phase 1b): 71 (71.7) n (%)
Metabolism and nutrition disorders TEAE, grade ≥3 (150 mg phase 1b): 26 (26.3) n (%)
Musculoskeletal and connective tissue disorders TEAE, any grade (150 mg phase 1b): 56 (56.6) n (%)
Musculoskeletal and connective tissue disorders TEAE, grade ≥3 (150 mg phase 1b): 8 (8.1) n (%)
Nausea TEAE, any grade (150 mg phase 1b): 49 (49.5) n (%)
Nausea TEAE, grade ≥3 (150 mg phase 1b): 7 (7.1) n (%)
Nausea TRAE, any grade (150 mg phase 1b): 38 (38.4) n (%)
Nausea TRAE, grade ≥3 (150 mg phase 1b): 5 (5.1) n (%)
Neoplasms benign, malignant, unspecified TEAE, any grade (150 mg phase 1b): 10 (10.1) n (%)
Neoplasms benign, malignant, unspecified TEAE, grade ≥3 (150 mg phase 1b): 8 (8.1) n (%)
Nervous system disorders TEAE, any grade (150 mg phase 1b): 50 (50.5) n (%)
Nervous system disorders TEAE, grade ≥3 (150 mg phase 1b): 5 (5.1) n (%)
PPE syndrome TEAE, any grade (150 mg phase 1b): 23 (23.2) n (%)
PPE syndrome TEAE, grade ≥3 (150 mg phase 1b): 4 (4.0) n (%)
PPE syndrome TRAE, any grade (150 mg phase 1b): 22 (22.2) n (%)
PPE syndrome TRAE, grade ≥3 (150 mg phase 1b): 4 (4.0) n (%)
Pain in extremity TEAE, any grade (150 mg phase 1b): 15 (15.2) n (%)
Pain in extremity TEAE, grade ≥3 (150 mg phase 1b): 2 (2.0) n (%)
Proteinuria TEAE, any grade (150 mg phase 1b): 11 (11.1) n (%)
Proteinuria TEAE, grade ≥3 (150 mg phase 1b): 0 n (%)
Proteinuria TRAE, any grade (150 mg phase 1b): 9 (9.1) n (%)
Proteinuria TRAE, grade ≥3 (150 mg phase 1b): 0 n (%)
Psychiatric disorders TEAE, any grade (150 mg phase 1b): 25 (25.3) n (%)
Psychiatric disorders TEAE, grade ≥3 (150 mg phase 1b): 1 (1.0) n (%)
Rash TEAE, any grade (150 mg phase 1b): 12 (12.1) n (%)
Rash TEAE, grade ≥3 (150 mg phase 1b): 0 n (%)
Rash TRAE, any grade (150 mg phase 1b): 11 (11.1) n (%)
Rash TRAE, grade ≥3 (150 mg phase 1b): 0 n (%)
Renal and urinary disorders TEAE, any grade (150 mg phase 1b): 23 (23.2) n (%)
Renal and urinary disorders TEAE, grade ≥3 (150 mg phase 1b): 1 (1.0) n (%)
Respiratory, thoracic and mediastinal disorders TEAE, any grade (150 mg phase 1b): 65 (65.7) n (%)
Respiratory, thoracic and mediastinal disorders TEAE, grade ≥3 (150 mg phase 1b): 14 (14.1) n (%)
Serious TEAE (150 mg phase 1b): 49 (49.5) n (%)
Serious TRAE (150 mg phase 1b): 22 (22.2) n (%)
Skin and subcutaneous tissue disorders TEAE, any grade (150 mg phase 1b): 55 (55.6) n (%)
Skin and subcutaneous tissue disorders TEAE, grade ≥3 (150 mg phase 1b): 6 (6.1) n (%)
Stomatitis TEAE, any grade (150 mg phase 1b): 14 (14.1) n (%)
Stomatitis TEAE, grade ≥3 (150 mg phase 1b): 1 (1.0) n (%)
Stomatitis TRAE, any grade (150 mg phase 1b): 14 (14.1) n (%)
Stomatitis TRAE, grade ≥3 (150 mg phase 1b): 1 (1.0) n (%)
TEAE grade ≥3 (150 mg phase 1b): 80 (80.8) n (%)
TEAE leading to death (150 mg phase 1b): 10 (10.1) n (%)
TEAE leading to discontinuation (150 mg phase 1b): 24 (24.2) n (%)
TEAE leading to treatment modification (150 mg phase 1b): 74 (74.7) n (%)
TRAE grade ≥3 (150 mg phase 1b): 61 (61.6) n (%)
TRAE leading to death (150 mg phase 1b): 1 (1.0) n (%)
TRAE leading to discontinuation (150 mg phase 1b): 17 (17.2) n (%)
TRAE leading to treatment modification (150 mg phase 1b): 66 (66.7) n (%)
UTI TEAE, any grade (150 mg phase 1b): 14 (14.1) n (%)
UTI TEAE, grade ≥3 (150 mg phase 1b): 3 (3.0) n (%)
Vascular disorders TEAE, any grade (150 mg phase 1b): 61 (61.6) n (%)
Vascular disorders TEAE, grade ≥3 (150 mg phase 1b): 32 (32.3) n (%)
Vomiting TEAE, any grade (150 mg phase 1b): 38 (38.4) n (%)
Vomiting TEAE, grade ≥3 (150 mg phase 1b): 10 (10.1) n (%)
Vomiting TRAE, any grade (150 mg phase 1b): 31 (31.3) n (%)
Vomiting TRAE, grade ≥3 (150 mg phase 1b): 5 (5.1) n (%)
Weight decreased TEAE, any grade (150 mg phase 1b): 28 (28.3) n (%)
Weight decreased TEAE, grade ≥3 (150 mg phase 1b): 3 (3.0) n (%)
Weight decreased TRAE, any grade (150 mg phase 1b): 18 (18.2) n (%)
Weight decreased TRAE, grade ≥3 (150 mg phase 1b): 2 (2.0) n (%)
ALT increased TEAE, any grade (Overall): 46 (23.8) n (%)
ALT increased TEAE, grade ≥3 (Overall): 5 (2.6) n (%)
ALT increased TRAE, any grade (Overall): 35 (18.1) n (%)
ALT increased TRAE, grade ≥3 (Overall): 3 (1.6) n (%)
AST increased TEAE, any grade (Overall): 47 (24.4) n (%)
AST increased TEAE, grade ≥3 (Overall): 4 (2.1) n (%)
